In patent US20090170851A1, “Chroman Compounds” (priority 2005, published 2009):

melting point	SMILES
150 to 160 °C	CN1CCN(c2ccc(NC(=O)C3CCc4cc(F)cc(N5CCN(C)CC5)c4O3)cc2)CC1 (stereo not drawn) [Example 41, 6-fluoro-8-(4-methylpiperazin-1-yl)-N-(4-(4-methylpiperazin-1-yl)phenyl)chroman-2-carboxamide]
180 to 190 °C	COc1cc2c(c(N3CCN(C)CC3)c1)OC(C(=O)Nc1ccc(N3CCN(C)CC3)cc1)CC2 (stereo not drawn) [Example 35, 6-methoxy-8-(4-methylpiperazin-1-yl)-N-(4-(4-methylpiperazin-1-yl)phenyl)chroman-2-carboxamide]
160 to 165 °C	CCC(=O)N1CCN(c2ccc(NC(=O)C3CCc4cc(F)cc(N5CCN(C)CC5)c4O3)cc2)CC1 (stereo not drawn) [Example 32, 6-fluoro-8-(4-methylpiperazin-1-yl)-N-(4-(4-proprionyl-piperazin-1-yl)phenyl)chroman-2-carboxamide]
